# Test results as given in US9765092B2, “Tricyclic piperidine compounds” (ACTELION PHARMACEUTICALS LTD, priority 2013, dated 2017).
# Target: human TPH1 (Homo sapiens (Human), UniProt P17752)
# Assay: Biochemical in vitro assay using fluorescence readout (TPH1 inhibition)
# Conditions: full length human TPH1, 40 μM L-tryptophan, 15° C., 60 minutes, fluorescence at 540 nm; mean if determined several times
# Source text: Biochemical In Vitro Assay Using Fluorescence Readout
# To generate the enzyme, full length human TPH1 is cloned into the plasmid pET20b(+) (Novagen) and expressed in E. coli. The bacterial cells are ruptured by sonication on ice and the lysate is cleared by centrifugation. The resulting protein in the pellet is re-extracted and TPH1 is purified from the obtained lysate by affinity chromatography using a pterin cosubstrate analog immobilized to the resin of the column. The protein is further purified by size exclusion chromatography to remove protein aggregates. The activity of TPH1 is determined by using a fluorescence assay. The enzyme activity assay is carried out at 15° C. with atmosphere oxygen for the duration of 60 minutes in a volume of 64 μl. The reaction is carried out in a 0.1 M Tris-HCl buffer, adjusted to pH 7.6, containing 1 mM DTT, 0.2 mg/mL catalase, 100 μM (±)-6-methyl-5,6,7,8-tetrahydropterine dihydrochloride, 40 μM L-tryptophan, and 40-80 nM of TPH1. The reaction is started by bringing together L-tryptophan with all the other reaction substituents and stopped by quenching with perchloric acid (HClO4). The amount of 5-hydroxy-L-tryptophan produced during the enzymatic reaction is determined by fluorescence readout. Fluorescence, as determined at 540 nm when excited at 300 nm wavelength, increases proportionally to the 5-hydroxy-L-tryptophan formed. Compounds are prepared as 10 mM stock solution in DMSO, then diluted in 384-well plates using DMSO followed by a transfer of the dilutions into the assay plate. Fluorescence is measured for each well and the fluorescence at 540 nm wavelength is compared to the fluorescence of the vehicle in place of compound. Inhibitory activities of example compounds with respect to the TPH1 protein are determined by calculating the IC50 value (the concentration of compound needed to inhibit 50% of the enzyme activity). The calculated IC50 values may fluctuate depending on the daily biochemical assay performance. Fluctuations of this kind are known to those skilled in the art.
# Sequence of human TPH1 (P17752 whole entry): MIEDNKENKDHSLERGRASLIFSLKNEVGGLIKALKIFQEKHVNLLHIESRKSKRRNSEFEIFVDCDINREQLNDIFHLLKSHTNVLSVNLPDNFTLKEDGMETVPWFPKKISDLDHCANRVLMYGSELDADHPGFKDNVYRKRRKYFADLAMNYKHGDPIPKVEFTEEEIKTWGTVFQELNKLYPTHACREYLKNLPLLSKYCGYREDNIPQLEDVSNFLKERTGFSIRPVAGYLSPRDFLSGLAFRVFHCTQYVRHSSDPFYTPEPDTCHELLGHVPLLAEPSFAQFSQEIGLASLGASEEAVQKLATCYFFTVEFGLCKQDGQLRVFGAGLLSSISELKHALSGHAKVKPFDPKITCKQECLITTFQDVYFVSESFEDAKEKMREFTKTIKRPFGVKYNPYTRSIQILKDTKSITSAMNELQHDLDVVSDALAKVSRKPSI
row,Compound,IC50 [nM]
1,"Cc1nn2c3c(nc2s1)CCN(C(=O)COc1ccc(N2CCOCC2)nc1Cl)C3c1csc(CN(C)C)c1 (stereo not shown) [Example 1.69.1, 2-((2-Chloro-6-morpholinopyridin-3-yl)oxy)-1-(5-(5-((dimethylamino)-methyl)thiophen-3-yl)-2-methyl-7,8-dihydro-[1,3,4]thiadiazolo[2′,3′:2,3]imidazo[4,5-c]pyridin-6(5H)-yl)ethanone]",51
2,"CCNc1nn(C)c(C2c3c(nc4sc(C)nn34)CCN2C(=O)COc2ccc(N3CCOCC3)nc2Cl)c1C (stereo not shown) [Example 1.51.1, 2-((2-Chloro-6-morpholinopyridin-3-yl)oxy)-1-(5-(3-(ethylamino)-1,4-dimethyl-1H-pyrazol-5-yl)-2-methyl-7,8-dihydro-[1,3,4]thiadiazolo[2′,3′:2,3]imidazo[4,5-c]pyridin-6(5H)-yl)ethanone]",58
3,"Cc1nn2c3c(nc2s1)CCN(C(=O)COc1ccc(N2CCOCC2)nc1Cl)C3c1nc(C(=O)N(C)C)co1 (stereo not shown) [Example 1.43.1, 2-(6-(2-((2-Chloro-6-morpholinopyridin-3-yl)oxy)acetyl)-2-methyl-5,6,7,8-tetrahydro-[1,3,4]thiadiazolo[2′,3′:2,3]imidazo[4,5-c]pyridin-5-yl)-N,N-dimethyloxazole-4-carboxamide]",26

# Same assay, conditions: human TPH1, fluorescence readout
row,Compound,IC50 [nM]
1,"CNC(=O)c1cc(F)c(C2c3c(nc4sc(C)nn34)CCN2C(=O)COc2ccc(C(N)=O)nc2Cl)s1 (stereo not shown) [Example 1.25.6, 6-chloro-5-(2-(5-(3-fluoro-5-(methylcarbamoyl)thiophen-2-yl)-2-methyl-7,8-dihydro-[1,3,4]thiadiazolo[2′,3′:2,3]imidazo[4,5-c]pyridin-6(5H)-yl)-2-oxoethoxy)picolinamide]",8
2,"O=C(COc1ccc(Cl)cc1Cl)N1CCc2nc3sccn3c2C1c1nc2ccccc2s1 (stereo not shown) [Example 6.12.3, 1-(5-(benzo[d]thiazol-2-yl)-7,8-dihydrothiazolo-[2′,3′:2,3]imidazo[4,5-c]pyridin-6(5H)-yl)-2-(2,4-dichlorophenoxy)ethanone]",20
3,"CCc1cc(Cl)ccc1OCC(=O)N1CCc2nc3sccn3c2C1c1c(C)noc1C (stereo not shown) [Example 6.5.5, 2-(4-chloro-2-ethylphenoxy)-1-(5-(3,5-dimethylisoxazol-4-yl)-7,8-dihydrothiazolo[2′,3′:2,3]imidazo[4,5-c]pyridin-6(5H)-yl)ethanone]",135
4,"Cc1nn2c3c(nc2s1)CCN(C(=O)COc1ccc(C(=O)NC2CC2)nc1Cl)C3c1ccc(C(C)(C)O)cc1F (stereo not shown) [Example 1.80.2, 6-chloro-N-cyclopropyl-5-(2-(5-(2-fluoro-4-(2-hydroxypropan-2-yl)phenyl)-2-methyl-7,8-dihydro-[1,3,4]thiadiazolo[2′,3′:2,3]imidazo[4,5-c]pyridin-6(5H)-yl)-2-oxoethoxy)picolinamide]",65
5,"CCc1ncccc1OCC(=O)N1CCc2nc3sc(C)nn3c2C1c1ccc(C2CC2)cc1F (stereo not shown) [Example 1.6.9, 1-(5-(4-cyclopropyl-2-fluorophenyl)-2-methyl-7,8-dihydro-[1,3,4]thiadiazolo[2′,3′:2,3]imidazo[4,5-c]pyridin-6(5H)-yl)-2-((2-ethylpyridin-3-yl)oxy)ethanone]",457
6,"CCc1nc(C(F)F)ccc1OCC(=O)N1CCc2nc3sc(C)nn3c2C1c1ccc(Cl)cc1F (stereo not shown) [Example 1.4.6, 1-(5-(4-chloro-2-fluorophenyl)-2-methyl-7,8-dihydro-[1,3,4]thiadiazolo[2′,3′:2,3]imidazo[4,5-c]pyridin-6(5H)-yl)-2-((6-(difluoromethyl)-2-ethylpyridin-3-yl)oxy)ethanone]",11
7,"Cc1cnc(C2c3c(nc4sc(C)nn34)CCN2C(=O)COc2ccc(NS(=O)(=O)C3CC3)nc2Cl)c(F)c1 (stereo not shown) [Example 1.31.9, N-(6-chloro-5-(2-(5-(3-fluoro-5-methylpyridin-2-yl)-2-methyl-7,8-dihydro-[1,3,4]thiadiazolo[2′,3′:2,3]imidazo[4,5-c]pyridin-6(5H)-yl)-2-oxoethoxy)pyridin-2-yl)cyclopropanesulfonamide]",21
8,"Cc1nn2c3c(nc2s1)CCN(C(=O)COc1ccc(NS(C)(=O)=O)nc1Cl)C3c1ccc(C(C)(C)O)cc1F (stereo not shown) [Example 1.80.1, N-(6-chloro-5-(2-(5-(2-fluoro-4-(2-hydroxypropan-2-yl)phenyl)-2-methyl-7,8-dihydro-[1,3,4]thiadiazolo[2′,3′:2,3]imidazo[4,5-c]pyridin-6(5H)-yl)-2-oxoethoxy)pyridin-2-yl)methanesulfonamide]",98
9,"Cc1nn2c3c(nc2s1)CCN(C(=O)COc1c(F)cc(N2CCOCC2)nc1Cl)C3c1ncc(C2CC2)cc1F (stereo not shown) [Example 1.14.12, 2-((2-chloro-4-fluoro-6-morpholinopyridin-3-yl)oxy)-1-(5-(5-cyclopropyl-3-fluoropyridin-2-yl)-2-methyl-7,8-dihydro-[1,3,4]thiadiazolo[2′,3′:2,3]imidazo[4,5-c]pyridin-6(5H)-yl)ethanone]",41
10,"Cc1nn2c3c(nc2s1)CCN(C(=O)COc1cccnc1Cl)C3c1cnc(N2CCOCC2)s1 (stereo not shown) [Example 1.7.3, 2-((2-chloropyridin-3-yl)oxy)-1-(2-methyl-5-(2-morpholinothiazol-5-yl)-7,8-dihydro-[1,3,4]thiadiazolo [2′,3′:2,3]imidazo[4,5-c]pyridin-6(5H)-yl)ethanone]",338
11,"Cc1nn2c3c(nc2s1)CCN(C(=O)COc1cnc(C(F)(F)F)nc1Cl)C3c1ccc(Cl)cc1F (stereo not shown) [Example 1.4.36, 2-((4-chloro-2-(trifluoromethyl)pyrimidin-5-yl)oxy)-1-(5-(4-chloro-2-fluorophenyl)-2-methyl-7,8-dihydro-[1,3,4]thiadiazolo[2′,3′:2,3]imidazo[4,5-c]pyridin-6(5H)-yl)ethanone]",38
12,"Cc1nn2c3c(nc2s1)CCN(C(=O)COc1ccc(NS(C)(=O)=O)nc1Cl)C3c1ncc(C2CC2)cc1F (stereo not shown) [Example 1.14.13, N-(6-chloro-5-(2-(5-(5-cyclopropyl-3-fluoropyridin-2-yl)-2-methyl-7,8-dihydro-[1,3,4]thiadiazolo[2′,3′:2,3]imidazo[4,5-c]pyridin-6(5H)-yl)-2-oxoethoxy)pyridin-2-yl)methanesulfonamide]",7
13,"CCc1nc(N2CCCS2(=O)=O)ccc1OCC(=O)N1CCc2nc3sc(C(F)(F)F)nn3c2C1c1ncc(C)cc1F (stereo not shown) [Example 5.2.1, 2-((6-(1,1-dioxidoisothiazolidin-2-yl)-2-ethylpyridin-3-yl)oxy)-1-(5-(3-fluoro-5-methylpyridin-2-yl)-2-(trifluoromethyl)-7,8-dihydro-[1,3,4]thiadiazolo[2′,3′:2,3]imidazo[4,5-c]pyridin-6(5H)-yl)ethanone]",13
14,"Cc1ccc(C2c3c(nc4sc(C)nn34)CCN2C(=O)COc2ccc(-c3ncco3)nc2Cl)c(F)c1 (stereo not shown) [Example 1.53.1, 2-((2-chloro-6-(oxazol-2-yl)pyridin-3-yl)oxy)-1-(5-(2-fluoro-4-methylphenyl)-2-methyl-7,8-dihydro-[1,3,4]thiadiazolo[2′,3′:2,3]imidazo[4,5-c]pyridin-6(5H)-yl)ethanone]",9
15,"Cc1nn2c3c(nc2s1)CCN(C(=O)COc1ccc(NS(C)(=O)=O)nc1Cl)C3c1sccc1F (stereo not shown) [Example 1.23.4, N-(6-chloro-5-(2-(5-(3-fluorothiophen-2-yl)-2-methyl-7,8-dihydro-[1,3,4]thiadiazolo[2′,3′:2,3]imidazo[4,5-c]pyridin-6(5H)-yl)-2-oxoethoxy)pyridin-2-yl)methanesulfonamide]",7
16,"CCc1ncccc1OCC(=O)N1CCc2nc3sccn3c2C1c1ccc(C(F)F)cc1F (stereo not shown) [Example 6.16.1, 1-(5-(4-(difluoromethyl)-2-fluorophenyl)-7,8-dihydro-thiazolo[2′,3′:2,3]imidazo[4,5-c]pyridin-6(5H)-yl)-2-((2-ethylpyridin-3-yl)oxy)ethanone]",14
17,"COc1ccc2c(OCC(=O)N3CCc4nc5sc(C)nn5c4C3c3ccc(Cl)cc3F)cc(C)nc2c1 (stereo not shown) [Example 1.4.63, 1-(5-(4-chloro-2-fluorophenyl)-2-methyl-7,8-dihydro-[1,3,4]thiadiazolo[2′,3′:2,3]imidazo[4,5-c]pyridin-6(5H)-yl)-2-((7-methoxy-2-methylquinolin-4-yl)oxy)ethan-1-one]",65
18,"CCc1nc(C)c(C2c3c(nc4sc(C)nn34)CCN2C(=O)COc2ccc(NS(C)(=O)=O)nc2Cl)s1 (stereo not shown) [Example 1.72.1, N-(6-chloro-5-(2-(5-(2-ethyl-4-methylthiazol-5-yl)-2-methyl-7,8-dihydro-[1,3,4]thiadiazolo[2′,3′:2,3]imidazo-[4,5-c]pyridin-6(5H)-yl)-2-oxoethoxy)pyridin-2-yl)methanesulfonamide]",22
19,"CCc1nc(C)ccc1OCC(=O)N1CCc2nc3sccn3c2C1c1ccc(C(F)F)cc1F (stereo not shown) [Example 6.16.2, 1-(5-(4-(difluoromethyl)-2-fluorophenyl)-7,8-dihydro-thiazolo[2′,3′:2,3]imidazo[4,5-c]pyridin-6(5H)-yl)-2-((2-ethyl-6-methylpyridin-3-yl)oxy)ethanone]",8
